Results: publication PMC11040327 (RSC Advances, 2024)
Like-named read-outs stand apart in the source and are kept apart here.

Legend:
[1] = tested on: HCT-116 cells; test: MTT cytotoxicity assay against HCT-116 cells; type: cell-based
[2] = target: VEGFR2 (Homo sapiens, UniProt P35968); test: VEGFR2 kinase inhibition assay; type: biochemical; conditions: for inhibition at 10 µM: read-out: VEGFR2 % Of inhibition at [10 μM], 10 μM compound
[3] = tested on: HCT-116 cells; test: Annexin V/PI flow cytometry for apoptosis in HCT-116 cells; type: cell-based; conditions: treated at IC50 for 48 h
[4] = Homo sapiens, HCT-116, 48 h, read-out: IC50 (μM) ± SD, cytotoxicity against HCT-116 cells, HCT-116 cells, MTT assay, 48 h, three independent trials

VEGFR2, sequence (P35968 20-1356): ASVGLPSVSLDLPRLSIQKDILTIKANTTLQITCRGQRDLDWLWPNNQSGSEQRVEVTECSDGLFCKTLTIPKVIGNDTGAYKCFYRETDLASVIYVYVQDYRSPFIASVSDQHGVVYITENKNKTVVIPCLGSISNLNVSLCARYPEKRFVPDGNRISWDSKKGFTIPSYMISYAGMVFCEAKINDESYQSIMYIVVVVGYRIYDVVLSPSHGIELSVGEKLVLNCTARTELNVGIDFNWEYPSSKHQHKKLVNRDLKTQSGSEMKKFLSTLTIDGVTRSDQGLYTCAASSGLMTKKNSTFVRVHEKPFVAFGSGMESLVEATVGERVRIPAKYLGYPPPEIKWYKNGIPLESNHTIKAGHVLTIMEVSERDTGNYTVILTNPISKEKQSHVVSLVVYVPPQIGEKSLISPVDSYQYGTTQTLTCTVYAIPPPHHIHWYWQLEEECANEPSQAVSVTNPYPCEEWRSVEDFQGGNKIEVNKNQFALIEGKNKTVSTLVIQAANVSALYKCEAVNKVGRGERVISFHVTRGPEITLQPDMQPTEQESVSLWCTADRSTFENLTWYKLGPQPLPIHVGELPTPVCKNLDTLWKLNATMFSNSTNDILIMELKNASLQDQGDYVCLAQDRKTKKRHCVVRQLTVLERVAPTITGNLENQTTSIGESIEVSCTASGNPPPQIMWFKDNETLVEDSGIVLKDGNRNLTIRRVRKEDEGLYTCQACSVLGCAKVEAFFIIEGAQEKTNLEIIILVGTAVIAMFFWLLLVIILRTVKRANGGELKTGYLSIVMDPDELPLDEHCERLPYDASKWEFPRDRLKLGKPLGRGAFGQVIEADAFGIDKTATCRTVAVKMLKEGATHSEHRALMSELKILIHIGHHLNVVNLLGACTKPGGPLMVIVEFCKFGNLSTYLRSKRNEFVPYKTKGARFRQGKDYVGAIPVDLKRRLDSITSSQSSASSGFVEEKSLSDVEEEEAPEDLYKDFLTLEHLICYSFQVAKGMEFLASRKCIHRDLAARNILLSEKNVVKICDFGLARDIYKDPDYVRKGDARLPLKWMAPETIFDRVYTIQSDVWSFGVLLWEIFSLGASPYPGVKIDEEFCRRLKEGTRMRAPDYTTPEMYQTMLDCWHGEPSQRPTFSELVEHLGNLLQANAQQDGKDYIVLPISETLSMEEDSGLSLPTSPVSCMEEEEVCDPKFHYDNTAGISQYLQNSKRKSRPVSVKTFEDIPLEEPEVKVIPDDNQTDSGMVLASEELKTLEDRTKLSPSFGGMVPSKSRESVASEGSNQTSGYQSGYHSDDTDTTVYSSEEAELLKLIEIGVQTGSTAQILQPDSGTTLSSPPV

Molecule `NNC(=O)CCn1nc(Cc2ccccc2)c2ccccc2c1=O` [Compound 5, 3-(4-benzyl-1-oxophthalazin-2(1H)-yl) propanehydrazide] has an IC50 [1, 4] of 13.8 ± 0.2 µM.

`C=CCNC(=O)CCn1nc(Cc2ccccc2)c2ccccc2c1=O` [Compound 7a, N-allyl-3-(4-benzyl-1-oxophthalazin-2(1H)-yl)propanamide] showed an IC50 [1, 4] of 34.8 ± 1.9 µM.

Work on `O=C(CCn1nc(Cc2ccccc2)c2ccccc2c1=O)N1CCOCC1` [Compound 7b, 4-benzyl-2-(3-morpholino-3-oxopropyl) phthalazin-1(2H)-one] yielded an IC50 [1, 4] of 24.3 ± 1.5 µM.

In the case of `O=C(CCn1nc(Cc2ccccc2)c2ccccc2c1=O)N1CCCCC1` [Compound 7d, 4-benzyl-2-(3-oxo-3-(piperidin-1-yl)propyl) phthalazin-1(2H)-one], the inhibition at 10 µM [2] is reported as 97.6% and the “apoptosis induction, fold versus untreated cells” value [3] is reported as 23.6 fold.

`CCCCNC(=O)CCn1nc(Cc2ccccc2)c2ccccc2c1=O` [Compound 7f, 3-(4-benzyl-1-oxophthalazin-2(1H)-yl)-N-butylpropanamide] showed an IC50 [1, 4] of 18.8 ± 0.6 µM.

With `O=C(CCn1nc(Cc2ccccc2)c2ccccc2c1=O)NCC(=O)N/N=C\c1ccc([N+](=O)[O-])cc1` [Compound 13a, (Z)-3-(4-benzyl-1-oxophthalazin-2(1H)-yl)-N-(2-(2-(4-nitrobenzylidene) hydrazinyl)-2-oxoethyl)propanamide] the IC50 [1, 4] was 45.7 ± 1.8 µM.

For `COc1ccc(/C=N\NC(=O)CNC(=O)CCn2nc(Cc3ccccc3)c3ccccc3c2=O)cc1` [Compound 13c, (Z)-3-(4-benzyl-1-oxophthalazin-2(1H)-yl)-N-(2-(2-(4-methoxybenzylidene) hydrazinyl)-2-oxoethyl)propanamide], the IC50 [1, 4] was 0.64 ± 0.05 µM, the “VEGFR2 % Of inhibition at [10 μM]” value ([2]; 10 μM compound, 10 µM) was 96.4 ± 2.8% and the IC50 ([2]; VEGFR2 IC50 [nM] ± SD, five concentrations, three replicates) was 19.8 ± 0.6 nM. The inhibition at 10 µM [2] was 95.2%.

For `CNC(=O)c1cc(Oc2ccc(NC(=O)Nc3ccc(Cl)c(C(F)(F)F)c3)cc2)ccn1` [Sorafenib, reference compound], the IC50 [1, 4] was 2.93 µM and the IC50 ([1]; read-out: IC50 (μM) ± SD, cytotoxicity against HCT-116 cells, HCT-116 cells, MTT assay, 48 h, three independent trials) was 3.23 ± 0.03 µM.
